In patent publication US20150050410A1, “COMPOUNDS, COMPOSITIONS, AND METHODS FOR MODULATING SWEET TASTE” (Chromocell Corporation, priority 2013, published 2015):

What was measured:
[1] = test system: perception of the sweet taste of an aqueous solution of sweetener in humans; assay: Two-alternative forced choice "sip and spit" method (2AFC); assay type: in vivo
Experimental: The taste test panelists used in the Examples 1-3 were selected using a sensory acuity screening program. Candidate taste panelists were recruited, with prescreening and personal interviews, and were assessed and for their ability to detect, recognize and differentiate basic taste attributes or mixtures thereof as part of a standardized acuity test. This included basic tastes of sweet, sour, salty, bitter and umami, as well as having the capacity to focus on specific aspects of sensory character such as ranking the various tastes perceived and identifying the basic tastes presented at threshold levels.
The effect of the test compounds on the perception of the sweet taste of an aqueous solution of sweetener in humans was evaluated using a two-alternative forced choice “sip and spit” method (2AFC).
The aqueous sweetener solutions were prepared by adding, fructose, sucrose or glucose (by weight), to water to achieve the desired concentration.
Compounds were first prepared as a 500-fold concentrated stock solution in 100% ethanol. These concentrated stocks were then added to the aqueous sweetener solutions to result in a final ethanol concentration of 0.2%. The control (positive and negative) samples were also normalized to 0.2% ethanol. This level of ethanol was not seen to contribute any perceived sweetness.
The 2AFC test used for compound evaluation was a blind and randomized test where taste panelists (n=15) evaluate a pair of sweetener solutions at a time one sample contains aqueous sweetener solution plus compound (i.e. test) while the other contains aqueous sweetener solution at higher concentration without compound (i.e. positive control). Each test sample was compared against a positive control. For example, if the test sample contained 1× sweetener concentration with compound (e.g. 5% sucrose with compound), the positive control sample contained a 1.1× sweetener concentration (e.g. 5.5% sucrose without compound).
Panelists were instructed not to eat or drink (except water) for at least 1 h before the test. During the test, panelists were instructed to sip each sample, swirl it around their mouth and then expectorate. After tasting each sample in the pair, panelists were instructed to record the sample that is “sweeter” in taste. Panelists cleansed their palates by rinsing with water, eating a cracker and waiting for an interval of about 5 minutes. Each pair was tasted twice. All samples were tasted at ambient temperatures. Data were analyzed using binomial probabilities.
Approximate levels of sweetness enhancement in column 5 of Table 2 were calculated as follows:
Approximate levels of sweetness enhancement=Sweetener concentration of positive control surpassed by the test sample, divided by sweetener concentration for compound-containing sample (e.g. 1.15×=5.75% sucrose/5% sucrose).

[2] = test system: tasters; conditions: DuBois, et al., J. Med. Chem., 1981; cited from earlier work

COc1ccc(C2CC(=O)c3c(O)cccc3O2)cc1O (racemic) [Compound 1, 5-hydroxy-2-(3-hydroxy-4-methoxyphenyl)chroman-4-one]
Fold increase in perceived sweetness ([1]; test sample 4% fructose, compound 25 ppm, positive control conc. / test sample conc.): >1.20X | Sweetener Concentration of positive control surpassed by test sample ([1]; test sample 4% fructose, positive control fructose, compound 25 ppm): > 4.8% | Sweetener Concentration of positive control surpassed by test sample ([1]; test sample 5% sucrose, positive control sucrose, compound 15 ppm): > 5.75% | Sweetener Concentration of positive control surpassed by test sample ([1]; test sample 6.5% glucose, positive control glucose, compound 10, 25 ppm): > 7.48% | reported sweet flavor [2]: sweet flavor
